In patent publication US20240158348A1, “HERBICIDAL CYCLIC AMIDES N-SUBSTITUTED WITH A HALOALKYLSULFONYLANILIDE GROUP” (FMC Corporation, priority 2021, published 2024):

How the values were obtained:
Assay type in all cases: in vivo
[1] = test system: pigweed, palmer (palmer amaranth, Amaranthus palmeri); assay: Test C preemergence, palmer amaranth; settings: 0 is no effect, 100 is complete control
Method in brief: (§1)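 Steps: sow in loam soil blended with sand; treat soil preemergence by directed spray, or treat young plants (2–10 cm, one to two leaves) postemergence; hold in greenhouse 10 or 12 days; rate injury visually relative to untreated controls on a 0–100 scale.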

[2] = test system: ragweed (common ragweed, Ambrosia artemisiifolia); assay: Test C preemergence, ragweed; settings: 0 is no effect, 100 is complete control
Method in brief: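 Greenhouse pot test. Compounds in a non-phytotoxic solvent with surfactant were applied to a loam–sand soil mix either preemergence as a directed spray or postemergence to plants at the one- to two-leaf stage; 0–100 visual ratings followed after 10 or 12 days.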

[3] = test system: wheat (Triticum aestivum); assay: Test C preemergence, wheat; settings: 0 is no effect, 100 is complete control
[4] = test system: blackgrass (Alopecurus myosuroides); assay: Test C postemergence, blackgrass; settings: 31 g ai/ha Postemergence; visual injury, 0 to 100 scale (0 no effect, 100 complete control)
Method in brief: as §1

[5] = test system: oat, wild (wild oat, Avena fatua); assay: Test C postemergence, wild oat; settings: for Oat, Wild plant response rating: 31 g ai/ha Postemergence, visual injury, 0 to 100 scale (0 no effect, 100 complete control); for Plant response rating (0 to 100 scale), Oat, Wild: 125 g ai/ha Postemergence, 0 is no effect, 100 is complete control
[6] = test system: wheat (Triticum aestivum); assay: Test C postemergence, wheat; settings: for Wheat plant response rating: visual injury, 0 to 100 scale (0 no effect, 100 complete control); for Plant response rating (0 to 100 scale), Wheat: 0 is no effect, 100 is complete control
Method in brief: as §1

[7] = test system: ducksalad (Heteranthera limosa); assay: Test D flooded paddy test, ducksalad; parameters: key: 0 = no effect, 100 = complete control; settings: 250 g ai/ha, Flood; applied to paddy water at 2-leaf stage; visual rating after 13 days; scale 0 (no effect) to 100 (complete control)
Method in brief: (§2)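 Visual response scores run 0 (no effect) to 100 (complete control), judged against controls 13 days after treatment. Compounds were added to paddy water 3 cm deep over soil, around plants at the 2-leaf stage kept in a greenhouse.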

[8] = test system: rice (Oryza sativa); assay: Test D flooded paddy test, rice; parameters: key: 0 = no effect, 100 = complete control; settings: 250 g ai/ha, Flood; applied to paddy water at 2-leaf stage; visual rating after 13 days; scale 0 (no effect) to 100 (complete control)
Method in brief: as §2

[9] = test system: horseweed (Erigeron canadensis); assay: Test C postemergence, horseweed; settings: for Horseweed plant response rating: 31 g ai/ha Postemergence, visual injury, 0 to 100 scale (0 no effect, 100 complete control); for Plant response rating (0 to 100 scale), Horseweed: 125 g ai/ha Postemergence, 0 is no effect, 100 is complete control
Method in brief: as §1

Row | SMILES | Plant response rating (0 to 100 scale), Pigweed, Palmer ([1]; 31 g ai/ha Preemergence) | Plant response rating (0 to 100 scale), Pigweed, Palmer ([1]; 125 g ai/ha Preemergence) | Plant response rating (0 to 100 scale), Ragweed ([2]; 31 g ai/ha Preemergence) | Plant response rating (0 to 100 scale), Ragweed ([2]; 125 g ai/ha Preemergence) | Plant response rating (0 to 100 scale), Wheat ([3]; 31 g ai/ha Preemergence) | Plant response rating (0 to 100 scale), Wheat ([3]; 125 g ai/ha Preemergence) | Blackgrass plant response rating [4] | Oat, Wild plant response rating [5] | Plant response rating (0 to 100 scale), Oat, Wild [5] | Wheat plant response rating ([6]; 31 g ai/ha Postemergence) | Wheat plant response rating ([6]; 125 g ai/ha Postemergence) | Plant response rating, Ducksalad [7] | Plant response rating, Rice [8] | Plant response rating (0 to 100 scale), Wheat ([6]; 125 g ai/ha Postemergence) | Horseweed plant response rating [9] | Plant response rating (0 to 100 scale), Horseweed [9]
1 | Cc1cc(C)c(N2CCC(OC3CC3)C2=O)cc1NS(=O)(=O)C(F)(F)F (single isomer, unassigned) [Compound 29] | 100 | 100 | 80 | 90 | 90 | 100 | 60 | 20 | 80 | 70 | 70 | 45 | 85 | – | – | –
2 | Cc1cc(C)c(N2CCC(OC3CC3)C2=O)cc1NS(=O)(=O)C(F)(F)F (single isomer, unassigned) [Compound 30] | 100 | 100 | 100 | 100 | 90 | 100 | 50 | 50 | 80 | 70 | 70 | 90 | 75 | – | – | –
3 | CO/N=C1\CCN(c2cc(NS(=O)(=O)C(F)(F)F)c(C)cc2C)C1=O [Compound 9, 1,1,1-trifluoro-N-[5-[3-(methoxyimino)-2-oxo-1-pyrrolidinyl]-2,4-dimethylphenyl]methanesulfonamide] | 100 | 100 | 50 | 90 | 90 | 100 | 80 | 80 | 80 | 80 | – | 95 | 30 | 80 | 100 | 100
4 | Cc1cc(C)c(N2CC/C(=N\O)C2=O)cc1NS(=O)(=O)C(F)(F)F [Compound 10, 1,1,1-trifluoro-N-[5-[3-(hydroxyimino)-2-oxo-1-pyrrolidinyl]-2,4-dimethylphenyl]methanesulfonamide] | 50 | 100 | 0 | 30 | 90 | 100 | 60 | 80 | 80 | 80 | – | 90 | 0 | 80 | 80 | 90
5 | C=CCO/N=C1\CCN(c2cc(NS(=O)(=O)C(F)(F)F)c(C)cc2C)C1=O [Compound 11] | 70 | 100 | 80 | 90 | 90 | 100 | 40 | – | – | 80 | – | 100 | 45 | 90 | 20 | 70
6 | C#CCO/N=C1\CCN(c2cc(NS(=O)(=O)C(F)(F)F)c(C)cc2C)C1=O [Compound 13, N-[2,4-dimethyl-5-[2-oxo-3-[(2-propyn-1-yloxy)imino]-1-pyrrolidinyl]phenyl]-1,1,1-trifluoromethanesulfonamide] | 100 | 100 | 50 | 100 | 90 | 100 | 80 | 90 | 90 | 90 | – | 100 | 35 | 90 | 70 | 90
7 | Cc1cc(C)c(N2CCC(O)C2=O)cc1NS(=O)(=O)C(F)(F)F (centres unmarked) [Compound 14] | 90 | 100 | 20 | 60 | 50 | 100 | 10 | 30 | 60 | 60 | – | 65 | 25 | 60 | 90 | 90
8 | COC(=O)N(c1cc(N2CCC(OC3CC3)C2=O)c(C)cc1C)S(=O)(=O)C(F)(F)F (centres unmarked) [Compound 16] | 0 | 0 | 0 | 0 | 0 | 0 | 0 | 0 | 0 | 0 | – | 0 | 0 | 0 | 0 | 30
9 | Cc1c(NS(=O)(=O)C(F)(F)F)cc(N2CCC(OC3CCC3)C2=O)c(C)c1F (centres unmarked) [Compound 25] | 100 | 100 | 90 | 100 | 60 | 100 | 0 | 0 | 20 | 50 | 60 | 75 | 15 | – | – | –
10 | Cc1c(N2CCC(OC3CCC3)C2=O)cc(N(COC(=O)C(C)(C)C)S(=O)(=O)C(F)(F)F)c(C)c1F (centres unmarked) [Compound 28] | 30 | 80 | 40 | 100 | 20 | 30 | 10 | 20 | 30 | 20 | 60 | 70 | 30 | – | – | –
